Laboratory results as given in paper PMC4378371, “Subunit disassembly and inhibition of TNFα by a semi-synthetic bicyclic peptide” (Protein Engineering, Design and Selection, 2015).
Bridge positions count the residues as written; N and C are the ends. Peptide text beside a SMILES is read from it.

Assays:
[1] = system: TNFα trimer; details: TNFα 10 µM with excess peptide 100 µM, longer pre-incubation
[2] = target: TNFα (Homo sapiens, UniProt P01375); details: L929 assay; unable to fully rescue because of toxicity at higher concentrations
[3] = system: L929 cells; details: at >100 µM compound

TNFα, sequence (P01375 77-233 limits assumed): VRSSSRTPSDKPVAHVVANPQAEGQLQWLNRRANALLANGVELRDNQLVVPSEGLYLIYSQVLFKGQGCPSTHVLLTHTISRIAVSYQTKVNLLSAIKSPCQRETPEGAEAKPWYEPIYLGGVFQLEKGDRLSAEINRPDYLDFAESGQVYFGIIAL

SMILES | effect on TNFα trimers (MS) [1] | maximal rescue of cell viability [2] [%] | cell death [3] [%]
Cc1c2c(C)c3c(C)c1CSC[C@H](NC(=O)[C@@H]1CCCN1C(=O)[C@@H]1CCCN1C(=O)[C@@H](NC(=O)[C@H](C)N)CSC3)C(=O)N[C@@H](CC(C)C)C(=O)N[C@@H](Cc1c[nH]c3ccccc13)C(=O)N[C@@H](CCC(N)=O)C(=O)N[C@@H](C(C)C)C(=O)N[C@@H](CC(C)C)C(=O)N[C@H](C(=O)NCC(=O)NCC(=O)N[C@@H](CO)C(=O)NCC(=O)N[C@@H](CO)C(=O)NCC(=O)N[C@@H](CO)C(=O)NCC(N)=O)CSC2 [M21h] | converted quantitatively into dimers and monomers |  | 
CC(C)C[C@H](NC(=O)[C@@H]1CSSC[C@@H]2NC(=O)[C@H](CC(C)C)NC(=O)[C@H](CCC(=O)O)NC(=O)[C@@H](NC(=O)[C@H](CCC(=O)O)NC(=O)[C@H](CC(=O)O)NC(=O)[C@@H](N)CC(N)=O)CSSC[C@H](NC(=O)[C@H](C)NC(=O)[C@H](C(C)C)NC(=O)[C@H](CC(N)=O)NC(=O)[C@H](C(C)C)NC2=O)C(=O)N[C@@H]([C@@H](C)O)C(=O)NCC(=O)N1)C(=O)O [SPD304] (H-NDECELCVNVACTGCL-OH; disulfide 4-12, 7-15) |  | ≤ 73 | 100
